This passage reports IC50 results from patent US12673933B2, “Aminopyrazine compounds as HPK1 inhibitor and the use thereof” (BEIGENE, LTD., priority 2019, dated 2026).

This test addresses T1, HPK1 kinase (aa1-346, Life Technologies) (Homo sapiens, UniProt Q92918).
T1 construct: HPK1 kinase (aa1-346, Life Technologies); purchased Life Technologies
T1 sequence (Q92918 1-346): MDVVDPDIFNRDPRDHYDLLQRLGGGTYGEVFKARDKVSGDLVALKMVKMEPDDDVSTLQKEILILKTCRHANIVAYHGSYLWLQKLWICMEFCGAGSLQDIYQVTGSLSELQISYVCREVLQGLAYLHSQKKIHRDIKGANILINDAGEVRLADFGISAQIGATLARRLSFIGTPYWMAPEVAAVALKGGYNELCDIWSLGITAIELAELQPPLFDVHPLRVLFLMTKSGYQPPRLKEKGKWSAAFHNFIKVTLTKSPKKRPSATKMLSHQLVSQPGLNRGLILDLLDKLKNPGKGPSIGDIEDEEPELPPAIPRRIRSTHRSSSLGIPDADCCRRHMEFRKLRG
Kind of test: HPK Kinase Activity Assay at 1 mM ATP (TR-FRET). The format is biochemical. The following applies: HPK1 kinase 40 nM, 0.5 μM STK1 substrate, read-out: Enzymatic activity IC50. The method, then: HPK Kinase Activity Assay at 1 mM ATP
Compounds disclosed herein were tested for inhibition of HPK1 kinase (aa1-346, Life Technologies) activity in assays based on the time-resolved fluorescence-resonance energy transfer (TR-FRET) methodology. The assays were carried out in 384-well low volume black plates in a reaction mixture containing HPK1 kinase (40 nM), 1 mM ATP, 0.5 μM STK1 substrate and 0-10 μM compound in buffer containing 50 mM HEPES, 0.01% BSA, 0.1 mM Orthovanadate, 10 mM MgCl2, 1 mM DTT, pH=7.0, 0.005% Tween-20. The kinase was incubated with the compounds disclosed herein or DMSO for 60 minutes at room temperature and the reaction was initiated by the addition of ATP and STK1 substrate. After reaction at room temperature for 120 minutes, an equal volume of stop/detection solution was added according to the manufacture's instruction (CisBio). The stop/detection solution contained STK Antibody-Cryptate and XL665-conjugated streptavidin in Detection Buffer. The TR-FRET signals (ratio of fluorescence emission at 665 nm over emission at 620 nm with excitation at 337 nm wavelength) were recorded on a PHERAstar FS plate reader (BMG Labtech). Phosphorylation of STK1 substrate led to the binding of STK Antibody-Cryptate to the biotinylated STK1 substrate, which places fluorescent donor (Eu^3+ crypate) in close proximity to the accepter (Streptavidin-XL665), thus resulting in a high degree of fluorescence resonance energy transfer. The inhibition of HPK1 in presence of increasing concentrations of compounds was calculated based on the ratio of fluorescence at 665 nm to that at 620 nm. The IC50 for each compound was derived from fitting the data to the four-parameter logistic equation by Graphpad Prism software.
For orientation: In TR-FRET formats the signal depends on donor and acceptor labels being close together.

As usually defined, the IC50 is the concentration that gives 50% inhibition. For `Cc1cc(-c2cnc(N)c(OCc3ccncc3F)n2)cc2c1CCN(C)C2` [Example 8, 5-(2,5-dimethyl-1,2,3,4-tetrahydroisoquinolin-7-yl)-3-((3-fluoropyridin-4-yl)methoxy)pyrazin-2-amine], the IC50 turned out to be 46 nM. The value for `Cc1cc(-c2cnc(N)c(Oc3cnn([C@H]4C[C@H](C#N)C4)c3)n2)cc2c1CN(C)CC2` [Example 316, (1r,3r)-3-(4-((3-amino-6-(2,8-dimethyl-1,2,3,4-tetrahydroisoquinolin-6-yl)pyrazin-2-yl)oxy)-1H-pyrazol-1-yl)cyclobutane-1-carbonitrile] was 85 nM.

As for `Cc1cc(-c2cnc(N)c(OCc3ccnc(C#Cc4ccc(F)cc4)c3)n2)cc2c1CCN(C)C2` [Example 20, 5-(2,5-dimethyl-1,2,3,4-tetrahydroisoquinolin-7-yl)-3-((2-((4-fluorophenyl)ethynyl)pyridin-4-yl)methoxy)pyrazin-2-amine], the half-inhibitory concentration (IC50) worked out at 151 nM. The value for `Cc1cc(-c2cnc(N)c(Oc3cnn(C4CCN(C)C4)c3)n2)cc2c1CCN(C)C2` (single isomer, unassigned) [Example 280B] was 51 nM; that for `Cc1cc(-c2cnc(N)c(OCc3cccnc3)n2)cc2c1CCN(C)C2` [Example 15, 5-(2,5-dimethyl-1,2,3,4-tetrahydroisoquinolin-7-yl)-3-(pyridin-3-ylmethoxy)pyrazin-2-amine] was 157 nM.

As to `Cc1cc(-c2cnc(N)c(OCc3ccnc(N)c3C)n2)cc2c1CCN(C)C2` [Example 29, 3-((2-amino-3-methylpyridin-4-yl)methoxy)-5-(2,5-dimethyl-1,2,3,4-tetrahydroisoquinolin-7-yl)pyrazin-2-amine], the IC50 was 16 nM. The value for `CCn1cc(Oc2nc(-c3cc4c(c(NC)c3)CCN(C)C4)cnc2N)cn1` [Example 275, 7-(5-amino-6-(1-ethyl-1H-pyrazol-4-yloxy)pyrazin-2-yl)-N,2-dimethyl-1,2,3,4-tetrahydroisoquinolin-5-amine] was 14 nM; that for `Cc1cc(-c2cnc(N)c(-n3cc(C(=O)N4CCC(F)(F)C4)cn3)n2)cc2c1CCN(C)C2` [Example 281, (1-(3-amino-6-(2,5-dimethyl-1,2,3,4-tetrahydroisoquinolin-7-yl)pyrazin-2-yl)-1H pyrazol-4-yl)(3,3-difluoropyrrolidin-1-yl)methanone] was 56 nM; that for `Cc1cc(-c2cnc(N)c(-n3cc(C(=O)NCC4CC4)cn3)n2)cc2c1CCN(C)C2` [Example 297, 1-(3-amino-6-(2,5-dimethyl-1,2,3,4-tetrahydroisoquinolin-7-yl)pyrazin-2-yl)-N-(cyclopropylmethyl)-1H-pyrazole-4-carboxamide] was 6.6 nM. Turning to `Cc1cc(-c2cnc(N)c(Oc3cnn(C4CCOCC4)c3)n2)cc2c1CCN(C)C2` [Example 309, 5-(2,5-dimethyl-1,2,3,4-tetrahydroisoquinolin-7-yl)-3-(1-(tetrahydro-2H-pyran-4-yl)-1H-pyrazol-4-yloxy)pyrazin-2-amine], the IC50 amounted to 22 nM.

For `Cc1cc(-c2cnc(N)c(-n3cc(C(=O)NCCN4CCCC4)cn3)n2)cc2c1CCN(C)C2` [Example 285, 1-(3-amino-6-(2,5-dimethyl-1,2,3,4-tetrahydroisoquinolin-7-yl)pyrazin-2-yl)-N-(2-(pyrrolidin-1-yl)ethyl)-1H-pyrazole-4-carboxamide], the IC50 turned out to be 14 nM.

Consider `Cc1cc(-c2cnc(N)c(OCc3ccncc3OCc3ccccc3)n2)cc2c1CCN(C)C2` [Example 33, 3-((3-(benzyloxy)pyridin-4-yl)methoxy)-5-(2,5-dimethyl-1,2,3,4-tetrahydroisoquinolin-7-yl)pyrazin-2-amine], for which the IC50 was determined as 8.2 nM. In the case of `Cc1cc(-c2cnc(N)c(OCc3cc(N)nc(N)c3)n2)cc2c1CCN(C)C2` [Example 222, 4-((3-amino-6-(2,5-dimethyl-1,2,3,4-tetrahydroisoquinolin-7-yl)pyrazin-2-yloxy)methyl)pyridine-2,6-diamine], the IC50 was found to be 4 nM. In the case of `Cc1cc(-c2cnc(N)c(OCc3ccnc(N)c3O[C@H]3CCOC3)n2)cc2c1CCN(C)C2` [Example 282, (S)-3-((2-amino-3-((tetrahydrofuran-3-yl)oxy)pyridin-4-yl)methoxy)-5-(2,5-dimethyl-1,2,3,4-tetrahydroisoquinolin-7-yl)pyrazin-2-amine] it was 6.6 nM. As for `CCn1cc(Oc2nc(-c3cc4c(c(OC)c3)CCN(C)C4)cnc2N)cn1` [Example 274, 3-(1-ethyl-1H-pyrazol-4-yloxy)-5-(5-methoxy-2-methyl-1,2,3,4-tetrahydroisoquinolin-7-yl)pyrazin-2-amine], the half-maximal inhibitory concentration (IC50) is 24 nM. The value for `Cc1cc(-c2cnc(N)c(-n3ncc4cc(CO)ccc43)n2)cc2c1CCN(C)C2` [Example 4, (1-(3-amino-6-(2,5-dimethyl-1,2,3,4-tetrahydroisoquinolin-7-yl)pyrazin-2-yl)-1H-indazol-5-yl)methanol] was 75 nM; that for `CCS(=O)(=O)N1CC(n2cc(Oc3nc(-c4cc(C)c5c(c4)CN(C)CC5)cnc3N)cn2)C1` [Example 295, 5-(2,5-dimethyl-1,2,3,4-tetrahydroisoquinolin-7-yl)-3-(1-(1-(ethylsulfonyl)azetidin-3-yl)-1H-pyrazol-4-yloxy)pyrazin-2-amine] was 36 nM; that for `Cc1cc(-c2cnc(N)c(OCc3ccnc(C#Cc4cccnc4)c3)n2)cc2c1CCN(C)C2` [Example 19, 5-(2,5-dimethyl-1,2,3,4-tetrahydroisoquinolin-7-yl)-3-((2-(pyridin-3-ylethynyl)pyridin-4-yl)methoxy)pyrazin-2-amine] was 98 nM. For the compound `COCCN(C)C(=O)c1cnn(-c2nc(-c3cc(C)c4c(c3)CN(C)CC4)cnc2N)c1` [Example 283, 1-(3-amino-6-(2,5-dimethyl-1,2,3,4-tetrahydroisoquinolin-7-yl)pyrazin-2-yl)-N-(2-methoxyethyl)-N-methyl-1H-pyrazole-4-carboxamide], the IC50 turned out to be 6.3 nM. For `Cc1cc(-c2cnc(N)c(OCc3ccnc(C#CC(C)(C)C)c3)n2)cc2c1CCN(C)C2` [Example 24, 5-(2,5-dimethyl-1,2,3,4-tetrahydroisoquinolin-7-yl)-3-((2-(3,3-dimethylbut-1-yn-1-yl)pyridin-4-yl)methoxy)pyrazin-2-amine], the IC50 is 61 nM. In the case of `CCN1CC(n2cc(Oc3nc(-c4cc(C)c5c(c4)CN(C)CC5)cnc3N)cn2)C1` [Example 310, 5-(2,5-dimethyl-1,2,3,4-tetrahydroisoquinolin-7-yl)-3-(1-(1-ethylazetidin-3-yl)-1H-pyrazol-4-yloxy)pyrazin-2-amine] it was 20 nM.

For the compound `Cc1cc(-c2cnc(N)c(OCc3ccnc4[nH]ccc34)n2)cc2c1CCN(C)C2` [Example 34, 3-((1H-pyrrolo[2,3-b]pyridin-4-yl)methoxy)-5-(2,5-dimethyl-1,2,3,4-tetrahydroisoquinolin-7-yl)pyrazin-2-amine], the IC50 was determined as 12 nM.

Consider `Cc1cc(-c2cnc(N)c(OCc3ccnc(N)c3)n2)cc2c1CCN(C)C2` [Example 10, 3-((2-aminopyridin-4-yl)methoxy)-5-(2,5-dimethyl-1,2,3,4-tetrahydroisoquinolin-7-yl)pyrazin-2-amine], for which the IC50 was found to be 5.2 nM.

`Cc1cc(-c2cnc(N)c(-n3cc(O)cn3)n2)cc2c1CCN(C)C2` [Example 7, 1-(3-amino-6-(2,5-dimethyl-1,2,3,4-tetrahydroisoquinolin-7-yl)pyrazin-2-yl)-1H-pyrazol-4-ol]: the IC50 amounted to 15 nM.

Turning to `Cc1cc(-c2cnc(N)c(OCc3ccccc3)n2)cc2c1CCN(C)C2` [Example 18, 3-(benzyloxy)-5-(2,5-dimethyl-1,2,3,4-tetrahydroisoquinolin-7-yl)pyrazin-2-amine], the IC50 turned out to be 73 nM. As to `CC#Cc1nn(-c2nc(-c3cc(C)c4c(c3)CN(C)CC4)cnc2N)cc1C(=O)N(C)C` [Example 319, 1-(3-amino-6-(2,5-dimethyl-1,2,3,4-tetrahydroisoquinolin-7-yl)pyrazin-2-yl)-N,N-dimethyl-3-(prop-1-ynyl)-1H-pyrazole-4-carboxamide], the IC50 turned out to be 18 nM. Turning to `Cc1cc(-c2cnc(N)c(OCc3ccnc(N)c3Cl)n2)cc2c1CCN(C)C2` [Example 152, 3-((2-amino-3-chloropyridin-4-yl)methoxy)-5-(2,5-dimethyl-1,2,3,4-tetrahydroisoquinolin-7-yl)pyrazin-2-amine], the IC50 amounted to 21 nM.
